Values quoted from earlier work as cited in patent publication US20020148003A1, “Transgenic plant or plants with a naturally high water content overproducing at least two amino acids of the aspartate family” (AVEBE, priority 1996, published 2002).

Columns and labels:
[1] = target: plant aspartate kinase (AK) sensitive to lysine; settings: plant AKs, lysine inhibition; read-out: I50 of plant AKs sensitive to lysine
[2] = tested on: plant dihydrodipicolinate synthase (DHPS)
E. coli DHPS = E. coli DHPS (Escherichia coli, UniProt P0A6L2); settings: lysine inhibition, read-out: I50 of E. coli DHPS for lysine
Sequence of E. coli DHPS (P0A6L2 whole entry): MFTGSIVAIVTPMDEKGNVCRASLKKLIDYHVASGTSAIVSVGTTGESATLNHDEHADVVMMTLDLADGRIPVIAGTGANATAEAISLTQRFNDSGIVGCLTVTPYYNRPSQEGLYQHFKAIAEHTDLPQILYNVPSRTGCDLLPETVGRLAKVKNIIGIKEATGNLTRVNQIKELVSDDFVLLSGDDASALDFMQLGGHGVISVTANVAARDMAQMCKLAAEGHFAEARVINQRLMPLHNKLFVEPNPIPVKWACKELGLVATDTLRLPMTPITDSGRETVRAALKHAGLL

NCCCC[C@H](N)C(=O)O [lysine]
IC50 [1]: 100 to 700 µM | sensitivity to lysine inhibition, plant DHPS versus E. coli DHPS ([2]; plant DHPS more sensitive than E. coli DHPS): about 100 fold | sensitivity to lysine inhibition, plant DHPS versus plant AKs ([2]; plant DHPS more sensitive than lysine-sensitive plant AKs): about 10 fold | IC50 ([2]; plant DHPS, feedback inhibition by end product, read-out: I50 of DHPS for lysine): 10 to 50 µM | IC50 (E. coli DHPS): ~1 mM
